In the supplement of paper PMC10627819:

Experiments:
Experiment in all cases: fitness (endpoint OD595 vs no drug) (fraction); higher = more growth
S. aureus DSM 20231 = tested on: S. aureus DSM 20231
In short: (§1)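 Fitness expresses the optical density reached at the stationary-phase transition as a fraction of the robust mean of no-drug control wells. It is capped at 1. Measurements were OD595 every 30 min for 14 h at 37 °C after inoculation of 384-well plates at OD595 0.01 (30 µl, or 55 µl for S. pneumoniae), minus the first reading.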

B. subtilis 168 = tested on: B. subtilis 168
In short: as §1

S. pneumoniae D39V = tested on: S. pneumoniae D39V
In short: as §1
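Further: OD595 on entry to stationary phase over no-drug wells; at most 1.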

CN(C)[C@@H]1C(O)=C(C(N)=O)C(=O)[C@@]2(O)C(O)=C3C(=O)c4c(O)ccc(Cl)c4[C@@](C)(O)[C@H]3C[C@@H]12 [Chlortetracycline] + O=C(O[C@@H]1Cc2c(O)cc(O)cc2O[C@@H]1c1cc(O)c(O)c(O)c1)c1cc(O)c(O)c(O)c1 [EGCG]
S. aureus DSM 20231, first compound 0.006 µg/mL, one replicate
Conditions	fitness
partner 12.5 µg/mL	0.65
partner 25 µg/mL	0.623
partner 50 µg/mL	0.673

fitness
Conditions	partner 6.25 µg/mL	partner 12.5 µg/mL	partner 25 µg/mL	partner 50 µg/mL
B. subtilis 168, first compound 0.0475 µg/mL	0.911	–	0.303	–
B. subtilis 168, first compound 0.095 µg/mL	0.754	0.463	–	–
B. subtilis 168, first compound 0.19 µg/mL	0.484	0.214	0.0594	–
S. aureus DSM 20231, first compound 0.012 µg/mL	–	0.595	0.549	–
S. aureus DSM 20231, first compound 0.024 µg/mL	–	0.455	0.398	0.332
S. aureus DSM 20231, first compound 0.048 µg/mL	–	0.138	0.108	0
S. pneumoniae D39V, first compound 0.012 µg/mL	–	0.759	0.805	0.949
S. pneumoniae D39V, first compound 0.024 µg/mL	–	0.444	0.454	0.672
S. pneumoniae D39V, first compound 0.048 µg/mL	–	0.247	0.212	–
S. pneumoniae D39V, first compound 0.375 µg/mL	–	0.07	0.0693	0.0612
S. pneumoniae D39V, first compound 0.75 µg/mL	–	0.0431	0.0527	0.0692
S. pneumoniae D39V, first compound 1.5 µg/mL	–	0.0475	0.0473	0.0718

CN(C)[C@@H]1C(O)=C(C(N)=O)C(=O)[C@@]2(O)C(O)=C3C(=O)c4c(O)ccc(Cl)c4[C@@](C)(O)[C@H]3C[C@@H]12 [Chlortetracycline] + Cc1onc(-c2ccccc2)c1C(=O)N[C@@H]1C(=O)N2[C@@H]1SC(C)(C)[C@@H]2C(=O)O [Oxacillin]
fitness, one replicate
Conditions	partner 0.0078 µg/mL	partner 0.0155 µg/mL	partner 0.0156 µg/mL	partner 0.031 µg/mL	partner 0.0312 µg/mL	partner 0.0625 µg/mL	partner 0.075 µg/mL	partner 0.15 µg/mL	partner 0.3 µg/mL
B. subtilis 168, first compound 0.0475 µg/mL	0.924	0.934	–	0.931	–	–	0.66	0.0283	0.0599
B. subtilis 168, first compound 0.095 µg/mL	0.926	0.814	–	0.674	–	–	0.581	0.0215	0.0316
B. subtilis 168, first compound 0.19 µg/mL	0.62	0.621	–	0.575	–	–	0.377	0.0401	0.0338
S. aureus DSM 20231, first compound 0.006 µg/mL	–	–	0.7	–	0.531	0.435	–	–	–

Conditions	fitness
B. subtilis 168, first compound 0.0475 µg/mL, partner 0.002 µg/mL	0.868
B. subtilis 168, first compound 0.0475 µg/mL, partner 0.004 µg/mL	0.829
B. subtilis 168, first compound 0.0475 µg/mL, partner 0.008 µg/mL	0.832
B. subtilis 168, first compound 0.095 µg/mL, partner 0.002 µg/mL	0.802
B. subtilis 168, first compound 0.095 µg/mL, partner 0.004 µg/mL	0.764
B. subtilis 168, first compound 0.095 µg/mL, partner 0.008 µg/mL	0.726
B. subtilis 168, first compound 0.19 µg/mL, partner 0.002 µg/mL	0.488
B. subtilis 168, first compound 0.19 µg/mL, partner 0.004 µg/mL	0.401
B. subtilis 168, first compound 0.19 µg/mL, partner 0.008 µg/mL	0.416
S. aureus DSM 20231, first compound 0.012 µg/mL, partner 0.0156 µg/mL	0.452
S. aureus DSM 20231, first compound 0.012 µg/mL, partner 0.0312 µg/mL	0.379
S. aureus DSM 20231, first compound 0.012 µg/mL, partner 0.0625 µg/mL	0.341
S. aureus DSM 20231, first compound 0.024 µg/mL, partner 0.0156 µg/mL	0.204
S. aureus DSM 20231, first compound 0.024 µg/mL, partner 0.0312 µg/mL	0.173
S. aureus DSM 20231, first compound 0.024 µg/mL, partner 0.0625 µg/mL	0.165
S. aureus DSM 20231, first compound 0.048 µg/mL, partner 0.0156 µg/mL	0.0968
S. aureus DSM 20231, first compound 0.048 µg/mL, partner 0.0312 µg/mL	0.0599
S. aureus DSM 20231, first compound 0.048 µg/mL, partner 0.0625 µg/mL	0.0746
S. pneumoniae D39V, first compound 0.012 µg/mL, partner 0.01 µg/mL	0.921
S. pneumoniae D39V, first compound 0.012 µg/mL, partner 0.02 µg/mL	0.878
S. pneumoniae D39V, first compound 0.012 µg/mL, partner 0.04 µg/mL	0.6
S. pneumoniae D39V, first compound 0.024 µg/mL, partner 0.01 µg/mL	0.876
S. pneumoniae D39V, first compound 0.024 µg/mL, partner 0.02 µg/mL	0.853
S. pneumoniae D39V, first compound 0.024 µg/mL, partner 0.04 µg/mL	0.681
S. pneumoniae D39V, first compound 0.048 µg/mL, partner 0.01 µg/mL	0.821
S. pneumoniae D39V, first compound 0.048 µg/mL, partner 0.02 µg/mL	0.739
S. pneumoniae D39V, first compound 0.048 µg/mL, partner 0.04 µg/mL	0.544
S. pneumoniae D39V, first compound 0.375 µg/mL, partner 0.005 µg/mL	0.0823
S. pneumoniae D39V, first compound 0.375 µg/mL, partner 0.01 µg/mL	0.0713
S. pneumoniae D39V, first compound 0.375 µg/mL, partner 0.02 µg/mL	0.0526
S. pneumoniae D39V, first compound 0.75 µg/mL, partner 0.005 µg/mL	0.104
S. pneumoniae D39V, first compound 0.75 µg/mL, partner 0.01 µg/mL	0.0551
S. pneumoniae D39V, first compound 0.75 µg/mL, partner 0.02 µg/mL	0.0755
S. pneumoniae D39V, first compound 1.5 µg/mL, partner 0.005 µg/mL	0.0919
S. pneumoniae D39V, first compound 1.5 µg/mL, partner 0.01 µg/mL	0.0809
S. pneumoniae D39V, first compound 1.5 µg/mL, partner 0.02 µg/mL	0.0469
